Here are results for 25 molecules from patent US20250388574A1, “HETEROCYCLIC COMPOUNDS AS TRIGGERING RECEPTOR EXPRESSED ON MYELOID CELLS 2 AGONISTS AND METHODS OF USE” (AMGEN INC., priority 2020, published 2025).

The assay deals with hTREM2 (Homo sapiens, UniProt Q9NZC2). Description: Phospho-Syk AlphaScreen/AlphaLISA assay in TREM2 and DAP12 overexpressing HEK293 cells (Example A1). The class given is cell-based. Set-up: expressed in transfected cells. Particulars: HEK293 cells; for EC50: read-out: hTREM2 EC50. The procedure, abridged:
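Single-cell-cloned HEK293 stably overexpressing TREM2 and DAP12, plated 20,000 cells/well for 20 h, then exposed to compounds (1% DMSO) 45 min at room temperature. Lysates probed for phospho-Syk by AlphaLISA sandwich (anti-pSyk, biotinylated anti-Syk); signal normalized to percent of control (100 nM anti-TREM2 antibody vs isotype) and fitted by 4-parameter logistic.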

Each structure is given as a SMILES string.

Sequence of hTREM2 (Q9NZC2 19-230): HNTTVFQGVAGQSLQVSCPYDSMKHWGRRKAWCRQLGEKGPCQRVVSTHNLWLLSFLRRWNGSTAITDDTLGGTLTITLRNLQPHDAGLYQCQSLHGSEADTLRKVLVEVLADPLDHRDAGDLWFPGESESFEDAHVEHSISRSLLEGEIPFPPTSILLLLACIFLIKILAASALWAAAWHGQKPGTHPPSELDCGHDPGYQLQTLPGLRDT
Sequence of hTREM2 (O43914 22-113 partner): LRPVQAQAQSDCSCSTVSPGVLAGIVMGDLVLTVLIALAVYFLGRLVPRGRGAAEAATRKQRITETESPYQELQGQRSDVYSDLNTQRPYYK

Take `Cc1nc2cc(N3CCO[C@@H](c4cnn(C)c4)C3)nc(-c3ncc(Cl)cc3F)c2c(=O)n1C` [Example 216, (S)-5-(5-chloro-3-fluoropyridin-2-yl)-2,3-dimethyl-7-(2-(1-methyl-1H-pyrazol-4-yl)morpholino)pyrido[4,3-d]pyrimidin-4(3H)-one]: the Emax result was “++++ (Emax>300)” and the EC50 was in the range of 0.5 to 3 µM.

For the molecule `Cc1nc2cc(N3CCO[C@H](c4cnn(C)c4)C3)nc(-c3ncc(Cl)cc3F)c2c(=O)n1C` [Example 217, (R)-5-(5-chloro-3-fluoropyridin-2-yl)-2,3-dimethyl-7-(2-(1-methyl-1H-pyrazol-4-yl)morpholino)pyrido[4,3-d]pyrimidin-4(3H)-one], the Emax result was “+++ (Emax>200 and ≤300)”; the EC50 was 3 to 100 µM.

In the case of `Cc1nc2cc(N3CCO[C@H](c4cnn(C)c4)C3)nc(-c3ccccc3F)c2c(=O)n1C` [Example 218, (R)-5-(2-fluorophenyl)-2,3-dimethyl-7-(2-(1-methyl-1H-pyrazol-4-yl)morpholino)pyrido[4,3-d]pyrimidin-4(3H)-one], the Emax result was “+++ (Emax>200 and ≤300)”; the EC50 was 3 to 100 µM.

Consider `Cc1nc2cc(N3CCO[C@@](C)(C4CC4)C3)nc(-c3ccc(Cl)cc3F)c2c(=O)n1C` [Example 219, (S)-5-(4-chloro-2-fluorophenyl)-7-(2-cyclopropyl-2-methylmorpholino)-2,3-dimethylpyrido[4,3-d]pyrimidin-4(3H)-one], for which the Emax result is “++ (Emax>100 and ≤200)”; the concentration for a half-maximal effect (EC50) lay within 0.5 to 3 µM.

In the case of `Cc1nc2cc(N3CCO[C@H](c4cnn(C)c4)C3)nc(-c3ccc(Cl)cc3)c2c(=O)n1C` [Example 220, (R)-5-(4-chlorophenyl)-2,3-dimethyl-7-(2-(1-methyl-1H-pyrazol-4-yl)morpholino)pyrido[4,3-d]pyrimidin-4(3H)-one], the Emax result is on record as “++++ (Emax>300)” and the EC50 was in the range of 0.05 to 0.5 µM.

Turning to `Cc1nc2cc(N3CCO[C@H](c4cnn(C)c4)C3)cc(-c3ccc(Cl)cc3F)c2c(=O)n1C` [Example 221, (R)-5-(4-chloro-2-fluorophenyl)-2,3-dimethyl-7-(2-(1-methyl-1H-pyrazol-4-yl)morpholino)quinazolin-4(3H)-one], the Emax result is reported as “++++ (Emax>300)” and the EC50 fell in the range of 0.05 to 0.5 µM.

As to `Cc1nc2cc(N3CCc4ncn(C)c4C3)nc(-c3ccc(Cl)cc3F)c2c(=O)n1C` [Example 222, 5-(4-chloro-2-fluorophenyl)-2,3-dimethyl-7-(3-methyl-3,4,6,7-tetrahydro-5H-imidazo[4,5-c]pyridin-5-yl)pyrido[4,3-d]pyrimidin-4(3H)-one], the Emax result was “++ (Emax>100 and ≤200)”; the EC50 was in the range of 0.5 to 3 µM.

Take `Cc1cnc2n1CCN(c1cc3nc(C)n(C)c(=O)c3c(-c3ccc(Cl)cc3F)n1)C2` [Example 223, 5-(4-chloro-2-fluorophenyl)-2,3-dimethyl-7-(3-methyl-5,6-dihydroimidazo[1,2-a]pyrazin-7(8H)-yl)pyrido[4,3-d]pyrimidin-4(3H)-one]: the Emax entry was “++ (Emax>100 and ≤200)”; the EC50 lay in the range of 3 to 100 µM.

As for `Cc1nc2cc(N3CCO[C@@](C)(c4cnn(C)c4)C3)nc(-c3ccc(Cl)cc3F)c2c(=O)n1C` [Example 224, (S)-5-(4-chloro-2-fluorophenyl)-2,3-dimethyl-7-(2-methyl-2-(1-methyl-1H-pyrazol-4-yl)morpholino)pyrido[4,3-d]pyrimidin-4(3H)-one], the Emax entry is “+++ (Emax>200 and ≤300)”; the EC50 is 0.5 to 3 µM.

On to `Cc1nc2cc(N3CCO[C@](C)(c4cnn(C)c4)C3)nc(-c3ccc(Cl)cc3F)c2c(=O)n1C` [Example 225, (R)-5-(4-chloro-2-fluorophenyl)-2,3-dimethyl-7-(2-methyl-2-(1-methyl-1H-pyrazol-4-yl)morpholino)pyrido[4,3-d]pyrimidin-4(3H)-one], for which the Emax entry was “++++ (Emax>300)” and the concentration for a half-maximal effect (EC50) fell in the range of 0.5 to 3 µM.

As to `Cc1nc2cc(N3CCO[C@H](c4ccncc4)C3)nc(-c3ccc(Cl)cc3F)c2c(=O)n1C` [Example 226, (R)-5-(4-chloro-2-fluorophenyl)-2,3-dimethyl-7-(2-(pyridin-4-yl)morpholino)pyrido[4,3-d]pyrimidin-4(3H)-one], the Emax result was “++++ (Emax>300)” and the EC50 lay in the range of 0.05 to 0.5 µM.

With `Cc1nc2cc(N3CCO[C@@H](c4cnn(C)c4)C3)nc(-c3cccc(F)c3F)c2c(=O)n1C` [Example 227, (S)-5-(2,3-difluorophenyl)-2,3-dimethyl-7-(2-(1-methyl-1H-pyrazol-4-yl)morpholino)pyrido[4,3-d]pyrimidin-4(3H)-one], the Emax result was “+++ (Emax>200 and ≤300)”; the EC50 fell in the range of 3 to 100 µM.

Regarding `Cc1nc2cc(N3CCO[C@@H](c4cnn(C)c4)C3)nc(-c3cc(F)ccc3F)c2c(=O)n1C` [Example 228, (S)-5-(2,5-difluorophenyl)-2,3-dimethyl-7-(2-(1-methyl-1H-pyrazol-4-yl)morpholino)pyrido[4,3-d]pyrimidin-4(3H)-one], the Emax result is “+++ (Emax>200 and ≤300)”; the EC50 lay in the range of 0.5 to 3 µM.

For the molecule `Cc1nc2cc(N3CCO[C@@H](c4cnn(C)c4)C3)nc(-c3ccc(F)cc3)c2c(=O)n1C` [Example 229, (S)-5-(4-fluorophenyl)-2,3-dimethyl-7-(2-(1-methyl-1H-pyrazol-4-yl)morpholino)pyrido[4,3-d]pyrimidin-4(3H)-one], the Emax entry is reported as “++++ (Emax>300)” and the EC50 fell in the range of 0.5 to 3 µM.

Take `Cc1noc([C@H]2CCCN(c3cc4nc(C)n(C)c(=O)c4c(-c4ccc(Cl)cc4F)n3)C2)n1` [Example 230, (S)-5-(4-chloro-2-fluorophenyl)-2,3-dimethyl-7-(3-(3-methyl-1,2,4-oxadiazol-5-yl)piperidin-1-yl)pyrido[4,3-d]pyrimidin-4(3H)-one]: the Emax result was “++++ (Emax>300)” and the EC50 lay within 0.5 to 3 µM.

`Cc1cnn([C@H]2CCCN(c3cc4nc(C)n(C)c(=O)c4c(-c4ccc(Cl)cc4F)n3)C2)c1` [Example 231, (S)-5-(4-chloro-2-fluorophenyl)-2,3-dimethyl-7-(3-(4-methyl-1H-pyrazol-1-yl)piperidin-1-yl)pyrido[4,3-d]pyrimidin-4(3H)-one]: the Emax result was “+++ (Emax>200 and ≤300)”; the EC50 lay within 0.5 to 3 µM.

With `Cc1nc2cc(N3CCC[C@H](N4CCCC4=O)C3)nc(-c3ccc(Cl)cc3F)c2c(=O)n1C` [Example 232, (S)-5-(4-chloro-2-fluorophenyl)-2,3-dimethyl-7-(3-(2-oxopyrrolidin-1-yl)piperidin-1-yl)pyrido[4,3-d]pyrimidin-4(3H)-one], the Emax entry is “++++ (Emax>300)” and the EC50 lay within 0.5 to 3 µM.

Take `Cc1nc2cc(N3CCC[C@H](c4ccncc4)C3)nc(-c3ccc(Cl)cc3F)c2c(=O)n1C` [Example 233, (R)-5-(4-chloro-2-fluorophenyl)-2,3-dimethyl-7-(3-(pyridin-4-yl)piperidin-1-yl)pyrido[4,3-d]pyrimidin-4(3H)-one]: the Emax result was “++++ (Emax>300)” and the EC50 lay in the range of 0.05 to 0.5 µM.

As for `Cc1cn2c(n1)CN(c1cc3nc(C)n(C)c(=O)c3c(-c3ccc(Cl)cc3F)n1)CC2` [Example 234, 5-(4-chloro-2-fluorophenyl)-2,3-dimethyl-7-(2-methyl-5,6-dihydroimidazo[1,2-a]pyrazin-7(8H)-yl)pyrido[4,3-d]pyrimidin-4(3H)-one], the Emax entry was “++ (Emax>100 and ≤200)”; the EC50 is 3 to 100 µM.

For the molecule `Cc1nc2cc(N3CCO[C@H](c4ccc(OCC(F)(F)F)nc4)C3)nc(-c3ccc(Cl)cc3F)c2c(=O)n1C` [Example 235, (R)-5-(4-chloro-2-fluorophenyl)-2,3-dimethyl-7-(2-(6-(2,2,2-trifluoroethoxy)pyridin-3-yl)morpholino)pyrido[4,3-d]pyrimidin-4(3H)-one], the Emax result is reported as “++++ (Emax>300)” and the EC50 lay in the range of 0.5 to 3 µM.

For the molecule `Cc1nc2cc(N3CCO[C@@H](c4ccc(OCC(F)(F)F)nc4)C3)nc(-c3ccc(Cl)cc3F)c2c(=O)n1C` [Example 236, (S)-5-(4-chloro-2-fluorophenyl)-2,3-dimethyl-7-(2-(6-(2,2,2-trifluoroethoxy)pyridin-3-yl)morpholino)pyrido[4,3-d]pyrimidin-4(3H)-one], the Emax result was “++ (Emax>100 and ≤200)”; the EC50 was in the range of 3 to 100 µM.

With `COc1ccc([C@@H]2CN(c3cc4nc(C)n(C)c(=O)c4c(-c4ccc(Cl)cc4F)n3)CCO2)cc1` [Example 237, (R)-5-(4-chloro-2-fluorophenyl)-7-(2-(4-methoxyphenyl)morpholino)-2,3-dimethylpyrido[4,3-d]pyrimidin-4(3H)-one], the Emax result was “++ (Emax>100 and ≤200)”; the EC50 is 0.05 to 0.5 µM.

Turning to `COc1cccc([C@@H]2CN(c3cc4nc(C)n(C)c(=O)c4c(-c4ccc(Cl)cc4F)n3)CCO2)c1` [Example 238, (R)-5-(4-chloro-2-fluorophenyl)-7-(2-(3-methoxyphenyl)morpholino)-2,3-dimethylpyrido[4,3-d]pyrimidin-4(3H)-one], the Emax entry was “++++ (Emax>300)” and the EC50 fell in the range of 0.05 to 0.5 µM.

As for `Cc1nc2cc(N3CCO[C@H](c4cccc(Cl)c4)C3)nc(-c3ccc(Cl)cc3F)c2c(=O)n1C` [Example 239, (R)-5-(4-chloro-2-fluorophenyl)-7-(2-(3-chlorophenyl)morpholino)-2,3-dimethylpyrido[4,3-d]pyrimidin-4(3H)-one], the Emax result is “+++ (Emax>200 and ≤300)”; the EC50 was 3 to 100 µM.

Take `Cc1nc2cc(N3CCO[C@H](c4ccsc4)C3)nc(-c3ccc(Cl)cc3F)c2c(=O)n1C` [Example 240, (R)-5-(4-chloro-2-fluorophenyl)-2,3-dimethyl-7-(2-(thiophen-3-yl)morpholino)pyrido[4,3-d]pyrimidin-4(3H)-one]: the Emax entry was “++++ (Emax>300)” and the EC50 was 3 to 100 µM.

As a reminder, the EC50 is the concentration needed to bring the measured effect to its halfway point.
